Laboratory results from patent US20210386367A1, “DEVICES AND SYSTEMS FOR GASTROINTESTINAL MICROBIOME DETECTION AND MANIPULATION” (Progenity, Inc., priority 2018, published 2021).
≈ marks a conversion by molar mass, not a printed value. Like-named read-outs stand apart in the source and are kept apart here.

How the values were obtained:
[1] = test system: Bacteroides non fragilis; assay: Agar dilution MIC, 29 clinical isolates; type: cell-based, Bacteroides spp.; conditions: for Mode: modal MIC
[2] = test system: Veillonella spp. clinical isolates; assay: MIC distribution against clinical isolates; type: cell-based; conditions: 30 Veillonella spp. isolates
From the text: (n=19 V. parvula, n=9 Veillonella spp., n=1 Veillonella dispr., n=1 V. atypica) clinical isolates (μg/mL).
As used herein, “minimum inhibitory concentration” or “MIC” refers to the lowest concentration of an antimicrobial agent, for example, an antimicrobial agent as described herein, required to inhibit the growth of an organism. […] “MIC90” represents the MIC value at which ≥90% of the strains within a test population are inhibited; the 90th percentile.
Many susceptibility testing methods are known in the art and can be used as described herein (see, e.g., Jorgensen and Ferraro (2009) Clinical Infectious Diseases 49:1749-1755; and Maurer et al. (2017) Infectious Disease Reports 9:6839; the entire contents of each of the foregoing are incorporated herein by reference). For example, antimicrobial susceptibility can be determined using conventional culture based methods such as the broth or agar dilution test. In these dilution tests, the bacterial isolate of interest is inoculated onto different media that include serial dilutions of an antimicrobial agent, and incubated under appropriate conditions (e.g., overnight at 37° C.) to allow for growth to occur. Following the incubation period, the media is examined to determine bacterial growth. The lowest concentration of antibiotic that prevents growth represents the minimal inhibitory concentration (MIC). Broth dilution tests can be miniaturized and mechanized allowing for reproducibility and high throughput.

[3] = test system: Bacteroides spp. spontaneous mutants; assay: Broth microdilution MIC of spontaneous mutants; type: cell-based
Method: Select isolates were subcultured onto agar containing drug at the selection concentration, were identified by MALDI, and were frozen for broth microdilution MIC testing as described below.
To determine whether colonies growing on drug selection plates had elevated MIC values to the selecting antibiotic, susceptibility testing by broth microdilution was conducted on isolated mutants following methodology recommended by CLSI (1), (2), and (3) “Performance Standards for Antimicrobial Susceptibility Testing; Twenty-Eighth Informational Supplement.,” CLSI document M100-S28, 2018.
All wells in columns 2 through 12 of a standard 96-well microdilution plate (Costar 3795) were filled with 150 μL of the appropriate diluent. Then, 300 μL of the test agents were added to the wells of column 1 of the plates at […] the highest final concentration to be tested. Serial two-fold dilutions were made across the rows through column 11 using the Biomek 2000. The wells of column 12 contained no drug and served as the growth control wells. This plate served as the “mother plate” from which selected MIC assay plates or “daughter plates” were made.
Daughter plates for anaerobic organisms were transferred to a Bactron II anaerobic chamber (Sheldon Manufacturing Inc., Cornelius, Oreg.) to reduce for 1 hour prior to inoculation. The inoculum for each organism was prepared in the anaerobic chamber and dispensed into sterile disposable reservoirs. Inoculation was completed using a multichannel pipette to transfer 10 μL of the inoculum into each well of the daughter plate. This yielded a final cell concentration in the daughter plates of approximately 1×10^6 CFU/mL.

[4] = test system: E. coli ATCC 25922; assay: Broth microdilution MIC (time-kill study); type: cell-based, Escherichia coli
[5] = test system: E. coli, Streptococcus spp., and Bacteroides spp. isolates; type: cell-based; conditions: across the evaluated isolates
Method: Initial values of the MIC were determined by agar dilution in accordance with guidelines from the Clinical and Laboratory Standards Institute (CLSI; (1) “Methods for Dilution Antimicrobial Susceptibility Tests for Bacteria That Grow Aerobically; Approved Standard; 11th ed.,” CLSI standard M07, 2018; (2) “Methods for Antimicrobial Susceptibility Testing of Anaerobic Bacteria; Approved Standard—Eighth Edition,” CLSI document M11-A8, 2012.).
If there were no colonies on the antibiotic selection plates, the spontaneous mutation frequency was reported as less than the frequency observed with one colony to indicate that the spontaneous mutation frequency was less than the limit of detection (one CFU). […] The mutation prevention concentration (MPC) was reported as the lowest concentration for which no mutants were selected.

[6] = test system: Bacteroides spp. (B. fragilis ATCC 25285, B. vulgatus, B. ovatus MMX 3503); assay: Agar dilution MIC (spontaneous mutation study; strain in conditions); type: cell-based
[7] = test system: S. pneumoniae ATCC 49619; conditions: cited from earlier work
[8] = 29 Bacteroides non-fragilis clinical isolates
[9] = B. fragilis ATCC 25285, selected on rifaximin 4X MIC, Colony A
[10] = B. fragilis ATCC 25285, selected on rifaximin 4X MIC, Colony B
[11] = B. fragilis ATCC 25285, selected on rifaximin 8X MIC, Colony A
[12] = B. fragilis ATCC 25285, selected on rifaximin 8X MIC, Colony B
[13] = B. ovatus MMX 3503, selected on rifaximin 4X MIC, Colony A
[14] = B. ovatus MMX 3503, selected on rifaximin 4X MIC, Colony B
[15] = B. ovatus MMX 3503, selected on rifaximin 8X MIC, Colony A
[16] = B. ovatus MMX 3503, selected on rifaximin 8X MIC, Colony B
[17] = B. vulgatus ATCC 8482, selected on ceftriaxone 4X MIC, Colony A
[18] = B. vulgatus ATCC 8482, selected on ceftriaxone 4X MIC, Colony B
[19] = B. vulgatus ATCC 8482, selected on rifaximin 4X MIC, Colony A
[20] = B. vulgatus ATCC 8482, selected on rifaximin 4X MIC, Colony B
[21] = B. vulgatus ATCC 8482, selected on rifaximin 8X MIC, Colony A
[22] = B. vulgatus ATCC 8482, selected on rifaximin 8X MIC, Colony B
[23] = B. vulgatus ATCC 8482 Parent (Table 50)
[24] = B. vulgatus ATCC 8482 Parent (Table 54)

Compound | MIC50 [1, 8] | MIC90 [1, 8] | Mode [1, 8] | Cumulative percentage of isolates inhibited at MIC ([2]; MIC 1 μg/mL) | Number of test isolates at MIC ([2]; MIC 1 μg/mL) | MIC [3, 9] | MIC [3, 10] | MIC [3, 11] | MIC [3, 12] | MIC ([3]; B. fragilis ATCC 25285 Parent) | MIC [3, 13] | MIC [3, 14] | MIC [3, 15] | MIC [3, 16] | MIC ([3]; B. ovatus MMX 3503 Parent) | MIC [3, 17] | MIC [3, 18] | MIC [3, 19] | MIC [3, 20] | MIC [3, 21] | other results
Cc1ncc([N+](=O)[O-])n1CCO [MTZ] | 0.5 µg/mL (≈ 2.92 µM) | 2 µg/mL (≈ 11.7 µM) | 0.5 µg/mL | 3.3% | 1 | 0.25 µg/mL | 0.5 µg/mL | 0.5 µg/mL | 0.25 µg/mL | 0.25 µg/mL | 2 µg/mL | 0.5 µg/mL | 1 µg/mL | 2 µg/mL | 0.5 µg/mL | 1 µg/mL | 1 µg/mL | 1 µg/mL | 1 µg/mL | 1 µg/mL | % I [1, 8]: 3%; % S [1, 8]: 97%; Cumulative percentage of isolates inhibited at MIC ([2]; MIC 2 μg/mL): 33.3%; Number of test isolates at MIC ([2]; MIC 2 μg/mL): 9; Cumulative percentage of isolates inhibited at MIC ([2]; MIC 4 μg/mL): 83.3%; Number of test isolates at MIC ([2]; MIC 4 μg/mL): 15; Cumulative percentage of isolates inhibited at MIC ([2]; MIC >32 μg/mL): 100.0%; Number of test isolates at MIC ([2]; MIC >32 μg/mL): 5; MIC [3, 22]: 1 µg/mL; MIC [3, 23]: 1 µg/mL; MIC [3, 24]: 1 µg/mL
piperacillin/tazobactam [piperacillin-tazobactam] | – | – | – | – | – | – | – | – | – | – | – | – | – | – | – | – | – | – | – | – | MIC ([4]; E. coli ATCC 25922): 4/4
CO[C@H]1/C=C/O[C@@]2(C)Oc3c(C)c(O)c4c(O)c(c5c(nc6cc(C)ccn65)c4c3C2=O)NC(=O)/C(C)=C\C=C\[C@H](C)[C@H](O)[C@@H](C)[C@@H](O)[C@@H](C)[C@H](OC(C)=O)[C@@H]1C [rifaximin] | 0.12 µg/mL (≈ 0.153 µM) | 0.5 µg/mL (≈ 0.636 µM) | 0.12 µg/mL | 10.0% | 1 | >64 µg/mL | 64 µg/mL | >64 µg/mL | >64 µg/mL | 0.12 µg/mL | >64 µg/mL | >64 µg/mL | >64 µg/mL | >64 µg/mL | 0.25 µg/mL | 0.06 µg/mL | 0.12 µg/mL | 32 µg/mL | 64 µg/mL | >64 µg/mL | MIC50 [1]: 0.12 µg/mL (≈ 0.153 µM); MIC90 [1]: 0.5 µg/mL (≈ 0.636 µM); relative activity among drugs tested [1]: most active; MIC range [1, 8]: 0.03 to 0.5 µg/mL; MPC values [5]: In no instance was an MPC able to be reported; Cumulative percentage of isolates inhibited at MIC ([2]; MIC 8 μg/mL): 93.3%; Number of test isolates at MIC ([2]; MIC 8 μg/mL): 7; Agar MIC ([6]; B. fragilis ATCC 25285): 0.25 µg/mL; Agar MIC ([6]; B. ovatus MMX 3503): 0.5 µg/mL; Agar MIC ([6]; B. vulgatus ATCC 8482): 0.12 µg/mL; MIC ([4]; E. coli ATCC 25922): 8 µg/mL (≈ 10.2 µM); MIC ([4]; broth microdilution): 8 µg/mL (≈ 10.2 µM); MIC [3, 22]: >64 µg/mL; MIC [3, 23]: 0.06 µg/mL; MIC [3, 24]: 0.06 µg/mL; broth microdilution MIC of selected colonies relative to parent strain ([3]; colonies selected at 4× and 8× the MIC): several-fold higher
CN[C@H](CC(C)C)C(=O)N[C@H]1C(=O)N[C@@H](CC(N)=O)C(=O)N[C@H]2C(=O)N[C@H]3C(=O)N[C@H](C(=O)N[C@H](C(=O)O)c4cc(O)cc(O)c4-c4cc3ccc4O)[C@H](O)c3ccc(c(Cl)c3)Oc3cc2cc(c3O[C@@H]2O[C@H](CO)[C@@H](O)[C@H](O)[C@H]2O[C@H]2C[C@](C)(N)[C@H](O)[C@H](C)O2)Oc2ccc(cc2Cl)[C@H]1O [vancomycin, Vancomycin] | – | – | – | – | – | – | – | – | – | – | – | – | – | – | – | – | – | – | – | – | CLSI QC range (MIC) [7]: (0.12-0.5) μg/mL; MIC ([4]; Escherichia coli, ATCC25922, E. coli ATCC 25922, read-out: MIC): > 16 µg/mL
